Data taken from patent publication US20230312601A1, “THIAZOLO[5,4-B]PYRIDINE MALT-1 INHIBITORS” (AbbVie Inc., priority 2022, published 2023).
One block for each compound: values may come before it.

How the values were obtained:
[1] = test system: OCI-LY3 IL6; experiment: MALT-1 Cell IL-6 AlphaLISA Assay; format: cell-based; details: Homo sapiens; OCI-LY3 cells, 48 hours incubation; read-out: OCI-LY3 IL6 48 hour Inhibition EC50
Summary of the method: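 MALT-1-dependent ABC-DLBCL OCI-LY3 cells were seeded at 50,000 cells/mL onto compound (30 μM to 1.5 nM) and incubated 48 hours at 37° C. Secreted human IL-6 in the medium was measured by AlphaLISA with acceptor beads, biotinylated anti-IL-6 antibody and streptavidin donor beads.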

[2] = target: human MALT-1 protein (Homo sapiens (Human), UniProt Q9UDY8); experiment: MALT-1 Biochemical Assay (Quench-FRET enzyme assay); details: human MALT-1 6 nM, substrate 2 μM, 40 min preincubation
Summary of the method: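 Human MALT-1 (6 nM) preincubated 40 min at room temperature with compound in pH 7.5 HEPES buffer containing 0.8 M sodium citrate and 2 mM DTT. Then 2 μM quenched TAMRA/QSY7 peptide substrate added for 60 min. Cleavage read by fluorescence (Ex 535/Em 590); EC50 is half-maximal inhibition of protease activity.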

[3] = test system: male Sprague-Dawley rats; experiment: Cardiovascular Assay in anesthetized rats; format: in vivo; details: rat; for HR (%) / MAP (%) / dP/dt@50 (%): change from vehicle; for Drug (μg/mL SEM): plasma at end of infusion
Protocol: The following cardiovascular assay was conducted using male Sprague-Dawley rats that were anesthetized with Inactin (thiobutabarbital), instrumented (catheterized both femoral artery and vein; catheterize left ventricular) and allowed to stabilize. Following a 30-minute baseline period, each compound was infused at low, medium, and high doses/30 minutes. Plasma samples were taken at the end of each dose infusion. If, at any point, the mean arterial pressure (MAP) of an animal decreased below 70 mmHg, the infusion was immediately stopped, a final blood sample was taken, and hemodynamic data for that animal was removed from the group average for all subsequent time points. A 15% change from vehicle for MAP or heart rate (HR), respectively, is considered biologically relevant. A 20% change from vehicle for dP/dt@50 is considered biologically relevant.

[4] = test system: CYP3A4 mRNA; experiment: CYP3A4 Induction Assay (qPCR, human hepatocytes); format: in vitro ADME; details: cryopreserved human hepatocytes (plated), 10 μM compound, mRNA fold over vehicle (0.1% DMSO)
Summary of the method: (§1)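 Cryopreserved human hepatocytes (60,000 cells/well), overlaid with Geltrex, were dosed at 10 μM final, with omeprazole, rifampicin and probenecid as controls. RNA was isolated on day 3. CYP3A4 mRNA was measured by TaqMan RT-qPCR with GAPDH as the reference gene.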

[5] = test system: CYP 3A4 mRNA; experiment: CYP3A4 Induction Assay (qPCR, human hepatocytes); format: in vitro ADME; details: 10 μM compound, relative to rifampicin 10 μM
Summary of the method: as §1

Sequence of human MALT-1 protein (Q9UDY8 whole entry): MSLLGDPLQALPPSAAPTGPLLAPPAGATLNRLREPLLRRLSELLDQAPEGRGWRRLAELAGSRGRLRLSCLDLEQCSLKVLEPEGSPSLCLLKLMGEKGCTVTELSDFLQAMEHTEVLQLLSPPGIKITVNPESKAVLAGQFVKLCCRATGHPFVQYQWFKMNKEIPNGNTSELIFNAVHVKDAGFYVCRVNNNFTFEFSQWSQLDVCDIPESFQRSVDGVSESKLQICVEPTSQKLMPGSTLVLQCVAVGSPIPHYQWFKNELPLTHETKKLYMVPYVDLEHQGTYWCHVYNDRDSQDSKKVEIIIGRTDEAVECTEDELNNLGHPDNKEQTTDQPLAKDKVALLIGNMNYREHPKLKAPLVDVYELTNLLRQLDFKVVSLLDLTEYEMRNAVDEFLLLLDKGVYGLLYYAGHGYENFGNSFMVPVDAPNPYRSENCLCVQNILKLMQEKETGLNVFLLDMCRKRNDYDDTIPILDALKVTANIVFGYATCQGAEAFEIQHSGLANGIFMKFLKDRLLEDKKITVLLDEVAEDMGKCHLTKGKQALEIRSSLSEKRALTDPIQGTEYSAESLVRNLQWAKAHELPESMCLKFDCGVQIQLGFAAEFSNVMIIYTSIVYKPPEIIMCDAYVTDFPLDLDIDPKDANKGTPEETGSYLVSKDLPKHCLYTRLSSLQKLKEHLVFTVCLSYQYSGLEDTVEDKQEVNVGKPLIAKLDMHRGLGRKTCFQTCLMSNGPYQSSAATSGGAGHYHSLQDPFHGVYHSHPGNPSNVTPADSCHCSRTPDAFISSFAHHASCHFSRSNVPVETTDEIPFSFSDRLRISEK

EC50 [1]: 140 nM
EC50 [2]: 110 nM
fold induction at 1 day, 10 µM [4]: 1.12
CYP3A4 % of positive control (%) [5]: (1.75) %
SMILES: CO[C@H](c1c(Nc2ccc([C@H](N(C)C(=O)C3CCS(=O)(=O)CC3)C(F)(F)F)cc2)cnc2sc(C)nc12)C(F)F [Example 3, N-{(1S)-1-[4-({7-[(1R)-2,2-difluoro-l-methoxyethyl]-2-methyl[1,3]thiazolo[5,4-b]pyridin-6-yl}amino)phenyl]-2,2,2-trifluoroethyl} -N-methyl-1,1-dioxo-1λ^6-thiane-4-carboxamide]
HR (%) ([3]; dose 3 mg/kg): −1%
MAP (%) ([3]; dose 3 mg/kg): 1%
dP/dt@50 (%) ([3]; dose 3 mg/kg): 0%
HR (%) ([3]; dose 10 mg/kg): −3%
MAP (%) ([3]; dose 10 mg/kg): 0%
dP/dt@50 (%) ([3]; dose 10 mg/kg): 3%
HR (%) ([3]; dose 30 mg/kg): −12%
MAP (%) ([3]; dose 30 mg/kg): −13%
dP/dt@50 (%) ([3]; dose 30 mg/kg): −3%
Drug (μg/mL SEM) ([3]; dose 3 mg/kg): 2.18 ± 0.10 µg/mL
Drug (μg/mL SEM) ([3]; dose 10 mg/kg): 8.34 ± 0.55 µg/mL
Drug (μg/mL SEM) ([3]; dose 30 mg/kg): 22.87 ± 2.67 µg/mL

EC50 [1]: 140 nM
EC50 [2]: 135 nM
fold induction at 1 day, 10 µM [4]: 1.93
CYP3A4 % of positive control (%) [5]: (12.7) %
SMILES: CCN(C(=O)C1CCS(=O)(=O)CC1)[C@@H](c1ccc(Nc2cnc3sc(C)nc3c2[C@H](C)OC)cc1)C(F)(F)F [Example 7, N-ethyl-1,1-dioxo-N-{(1S)-2,2,2-trifluoro-1-[4-({7-[(1S)-1-methoxyethyl]-2-methyl[1,3]thiazolo [5,4-b]pyridin-6-yl}amino)phenyl]ethyl}-1λ^6-thiane-4-carboxamide]

EC50 [1]: 140 nM
EC50 [2]: 102 nM
fold induction at 1 day, 10 µM [4]: 0.548
CYP3A4 % of positive control (%) [5]: (−5.95) %
SMILES: CO[C@@H](C)c1c(Nc2c(F)cc([C@H](N(C)C(=O)C3CCS(=O)(=O)CC3)C(F)(F)F)cc2F)cnc2sc(C)nc12 [Example 9, N-{(1S)-1-[3,5-difluoro-4-({7-[(1S)-1-methoxyethyl]-2-methyl[1,3]thiazolo[5,4-b]pyridin-6-yl}amino)phenyl]-2,2,2-trifluoroethyl}-N-methyl-1,1-dioxo-1λ^6-thiane-4-carboxamide]

EC50 [1]: 230 nM
EC50 [2]: 198 nM
fold induction at 1 day, 10 µM [4]: 8.24
CYP3A4 % of positive control (%) [5]: (84.8) %
SMILES: CO[C@@H](C)c1c(Nc2ccc([C@H](N(C)C(=O)C3CCS(=O)(=O)CC3)C(F)(F)F)cc2F)cnc2sc(C)nc12 (single isomer, unassigned) [Example 10]

EC50 [1]: 200 nM
EC50 [2]: 91 nM
fold induction at 1 day, 10 µM [4]: 1.45
CYP3A4 % of positive control (%) [5]: (5.46) %
SMILES: CO[C@@H](C)c1c(Nc2ccc([C@H](N(C)C(=O)C3CCS(=O)(=O)CC3)C(F)(F)F)cc2)cnc2sc(C)nc12 [Example 1, N-methyl-1,1-dioxo-N-{(1S)-2,2,2-trifluoro-1-[4-({7-[(1S)-1-methoxyethyl]-2-methyl[1,3]thiazolo[5,4-b]pyridin-6-yl}amino)phenyl]ethyl}-1λ^6-thiane-4-carboxamide]
HR (%) ([3]; dose 3 mg/kg): −4%
MAP (%) ([3]; dose 3 mg/kg): −5%
dP/dt@50 (%) ([3]; dose 3 mg/kg): 5%
HR (%) ([3]; dose 10 mg/kg): −8%
MAP (%) ([3]; dose 10 mg/kg): −8%
dP/dt@50 (%) ([3]; dose 10 mg/kg): 12%
HR (%) ([3]; dose 30 mg/kg): −17%
MAP (%) ([3]; dose 30 mg/kg): −16%
dP/dt@50 (%) ([3]; dose 30 mg/kg): 11%
Drug (μg/mL SEM) ([3]; dose 3 mg/kg): 2.32 ± 0.12 µg/mL
Drug (μg/mL SEM) ([3]; dose 10 mg/kg): 9.36 ± 0.41 µg/mL
Drug (μg/mL SEM) ([3]; dose 30 mg/kg): 24.00 ± 1.63 µg/mL

Further lines, the compound ahead of its results:

SMILES: CO[C@@H](c1c(Nc2ccc([C@H](N(C)C(=O)C3CCN(C(C)=O)CC3)C(F)(F)F)cc2)cnc2sc(C)nc12)C(F)F [Example 33, 1-acetyl-N-{(1S)-1-[4-({7-[(1S)-2,2-difluoro-1-methoxyethyl]-2-methyl[1,3]thiazolo [5,4-b]pyridin-6-yl}amino)phenyl]-2,2,2-trifluoroethyl}-N-methylpiperidine-4-carboxamide]
EC50 [1]: 180 nM
EC50 [2]: 162 nM
HR (%) ([3]; dose 3 mg/kg): −5%
MAP (%) ([3]; dose 3 mg/kg): −5%
dP/dt@50 (%) ([3]; dose 3 mg/kg): 1%
HR (%) ([3]; dose 10 mg/kg): −7%
MAP (%) ([3]; dose 10 mg/kg): −5%
dP/dt@50 (%) ([3]; dose 10 mg/kg): 1%
HR (%) ([3]; dose 30 mg/kg): −8%
MAP (%) ([3]; dose 30 mg/kg): −9%
dP/dt@50 (%) ([3]; dose 30 mg/kg): 7%
Drug (μg/mL SEM) ([3]; dose 3 mg/kg): 2.52 ± 0.39 µg/mL
Drug (μg/mL SEM) ([3]; dose 10 mg/kg): 11.20 ± 0.60 µg/mL
Drug (μg/mL SEM) ([3]; dose 30 mg/kg): 34.10 ± 1.95 µg/mL
fold induction at 1 day, 10 µM [4]: 2.72
CYP3A4 % of positive control (%) [5]: (20.2) %

SMILES: CO[C@@H](C)c1c(Nc2ccc([C@@H](C(F)F)N(C)C(=O)C3CCN(C(C)=O)CC3)cc2)cnc2sc(C)nc12 [Example 29, 1-acetyl-N-{(1S)-2,2-difluoro-1-[4-({7-[(1S)-1-methoxyethyl]-2-methyl[1,3]thiazolo[5,4-b]pyridin-6-yl}amino)phenyl]ethyl}-N-methylpiperidine-4-carboxamide]
EC50 [1]: 300 nM
EC50 [2]: 232 nM
fold induction at 1 day, 10 µM [4]: 3.29
CYP3A4 % of positive control (%) [5]: (27.8) %

SMILES: CO[C@@H](C)c1c(Nc2ccc([C@H](N(C)C(=O)C3CCN(C(C)=O)CC3)C(F)(F)F)cc2)cnc2sc(C)nc12 [Example 19, 1-acetyl-N-methyl-N-{(1S)-2,2,2-trifluoro-1-[4-({7-[(1S)-1-methoxyethyl]-2-methyl[1,3]thiazolo [5,4-b]pyridin-6-yl}amino)phenyl]ethyl}piperidine-4-carboxamide]
EC50 [1]: 950 nM
EC50 [2]: 198 nM
HR (%) ([3]; dose 3 mg/kg): −5%
MAP (%) ([3]; dose 3 mg/kg): 0%
dP/dt@50 (%) ([3]; dose 3 mg/kg): −5%
HR (%) ([3]; dose 10 mg/kg): −5%
MAP (%) ([3]; dose 10 mg/kg): −1%
dP/dt@50 (%) ([3]; dose 10 mg/kg): −5%
HR (%) ([3]; dose 30 mg/kg): −9%
MAP (%) ([3]; dose 30 mg/kg): −2%
dP/dt@50 (%) ([3]; dose 30 mg/kg): −3%
Drug (μg/mL SEM) ([3]; dose 3 mg/kg): 2.51 ± 0.29 µg/mL
Drug (μg/mL SEM) ([3]; dose 10 mg/kg): 8.92 ± 0.73 µg/mL
Drug (μg/mL SEM) ([3]; dose 30 mg/kg): 25.13 ± 0.98 µg/mL
fold induction at 1 day, 10 µM [4]: 0.985
CYP3A4 % of positive control (%) [5]: (−0.162) %

SMILES: Cc1nc2c([C@@H](C)C(F)(F)F)c(Nc3ccc([C@H](N(C)C(=O)C4CCS(=O)(=O)CC4)C(F)(F)F)cc3)cnc2s1 (single isomer, unassigned) [Example 38]
EC50 [1]: 190 nM
EC50 [2]: 156 nM
fold induction at 1 day, 10 µM [4]: 2.72
CYP3A4 % of positive control (%) [5]: (19.9) %

SMILES: CO[C@@H](C)c1c(Nc2ccc([C@H](N(C)C(=O)C3CCN(C(=O)[C@@H](O)CO)CC3)C(F)(F)F)cc2)cnc2sc(C)nc12 [Example 30, 1-[(25)-2,3-dihydroxypropanoyl]-N-methyl-N-{(1S)-2,2,2-trifluoro-1-[4-({7-[(1S)-1-methoxyethyl]-2-methyl[1,3]thiazolo[5,4-b]pyridin-6-yl}amino)phenyl]ethyl}piperidine-4-carboxamide]
EC50 [1]: 710 nM
EC50 [2]: 82 nM
fold induction at 1 day, 10 µM [4]: 1.49
CYP3A4 % of positive control (%) [5]: (5) %

SMILES: CO[C@H](c1c(Nc2ccc([C@H](N(C)C(=O)C3CCN(C(=O)CO)CC3)C(F)(F)F)cc2)cnc2sc(C)nc12)C(F)F [Example 21, N-{(1S) -1-[4-({7-[(1R)-2,2-difluoro-1-methoxyethyl]-2-methyl[1,3]thiazolo[5,4-b]pyridin-6-yl}amino)phenyl]-2,2,2-trifluoroethyl}-1-(hydroxyacetyl)-N-methylpiperidine-4-carboxamide]
EC50 [1]: 670 nM
EC50 [2]: 141 nM
fold induction at 1 day, 10 µM [4]: 1.29
CYP3A4 % of positive control (%) [5]: (5.55) %
